In ChEMBL document CHEMBL6071143, “Discovery of a potent melatonin-based inhibitor of quinone reductase-2 with neuroprotective and neurogenic properties” (Eur J Med Chem, 2024):
Values after ≈ are worked out from the molar mass of the structure shown. Values belong to the compound of their own block, whether it stands above or below them. Active and inactive are the calls of the source. No cut-off for these calls is given here.

Assays:
[1] = Displacement of 2-[125I]iodomelatonin from human MT1R transfected in CHO cells incubated for 30 mins; type: cell-based
[2] = Displacement of 2-[125I]iodomelatonin from human MT2R transfected in CHO cells incubated for 30 mins; type: cell-based
[3] = tested on: CHO; experiment: Displacement of 2-[125I]iodomelatonin from human MT1R transfected in CHO cells at 10 uM incubated for 30 mins relative to control; type: cell-based
[4] = Antioxidant activity assessed as oxygen radical scavenging by measuring trolox equivalents preincubated for 15 mins followed by AAPH addition and measured after 80 mins by fluorescence plate reader assay; type: functional; details: time 95.0 min
[5] = molecular target: T1, Amine oxidase [flavin-containing] A (Homo sapiens, UniProt P21397); experiment: Inhibition of human MAO-A expressed in baculovirus infected BTI insect cells preincubated for 15 mins followed by p-tyramine addition by amplex red reagent based fluorescence microplate reader assay
T1 sequence (P21397 whole entry): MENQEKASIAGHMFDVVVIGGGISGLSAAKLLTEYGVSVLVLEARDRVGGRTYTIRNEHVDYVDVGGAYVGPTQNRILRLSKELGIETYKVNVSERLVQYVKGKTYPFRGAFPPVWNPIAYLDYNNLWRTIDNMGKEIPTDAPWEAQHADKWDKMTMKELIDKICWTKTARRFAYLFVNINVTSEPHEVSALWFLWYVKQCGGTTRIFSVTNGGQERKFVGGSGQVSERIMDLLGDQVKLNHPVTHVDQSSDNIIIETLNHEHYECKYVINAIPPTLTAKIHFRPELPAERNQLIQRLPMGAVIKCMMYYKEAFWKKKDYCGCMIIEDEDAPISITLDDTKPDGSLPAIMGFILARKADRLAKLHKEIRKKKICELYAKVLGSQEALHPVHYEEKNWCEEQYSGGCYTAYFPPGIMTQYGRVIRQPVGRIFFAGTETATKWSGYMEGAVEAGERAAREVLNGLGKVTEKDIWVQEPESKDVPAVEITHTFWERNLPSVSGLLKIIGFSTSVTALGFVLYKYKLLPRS

[6] = molecular target: T2, Amine oxidase [flavin-containing] B (Homo sapiens, UniProt P27338); experiment: Inhibition of human MAO-B expressed in baculovirus infected BTI insect cells preincubated for 15 mins followed by p-tyramine addition by amplex red reagent based fluorescence microplate reader assay; type: cell-based
T2 sequence (P27338 whole entry): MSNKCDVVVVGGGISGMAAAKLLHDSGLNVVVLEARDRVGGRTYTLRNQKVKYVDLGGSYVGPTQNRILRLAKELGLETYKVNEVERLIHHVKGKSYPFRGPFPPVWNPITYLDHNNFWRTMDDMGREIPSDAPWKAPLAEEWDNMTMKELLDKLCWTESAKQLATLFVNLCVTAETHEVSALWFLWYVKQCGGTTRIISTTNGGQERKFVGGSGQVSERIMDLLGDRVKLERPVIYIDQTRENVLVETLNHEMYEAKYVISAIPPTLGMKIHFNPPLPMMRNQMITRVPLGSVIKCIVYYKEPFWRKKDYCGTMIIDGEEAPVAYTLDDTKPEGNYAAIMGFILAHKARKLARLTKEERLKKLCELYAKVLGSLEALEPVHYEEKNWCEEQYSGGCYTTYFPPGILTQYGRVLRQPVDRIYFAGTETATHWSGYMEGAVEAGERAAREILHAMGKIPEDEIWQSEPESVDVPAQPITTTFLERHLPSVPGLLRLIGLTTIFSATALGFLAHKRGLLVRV

[7] = molecular target: T3, Polyunsaturated fatty acid 5-lipoxygenase (Homo sapiens, UniProt P09917); experiment: Inhibition of human LOX-5 preincubated for 10 mins followed by AA addition and measured after 20 mins in presence of ATP by fluorescence based assay
T3 sequence (P09917 whole entry): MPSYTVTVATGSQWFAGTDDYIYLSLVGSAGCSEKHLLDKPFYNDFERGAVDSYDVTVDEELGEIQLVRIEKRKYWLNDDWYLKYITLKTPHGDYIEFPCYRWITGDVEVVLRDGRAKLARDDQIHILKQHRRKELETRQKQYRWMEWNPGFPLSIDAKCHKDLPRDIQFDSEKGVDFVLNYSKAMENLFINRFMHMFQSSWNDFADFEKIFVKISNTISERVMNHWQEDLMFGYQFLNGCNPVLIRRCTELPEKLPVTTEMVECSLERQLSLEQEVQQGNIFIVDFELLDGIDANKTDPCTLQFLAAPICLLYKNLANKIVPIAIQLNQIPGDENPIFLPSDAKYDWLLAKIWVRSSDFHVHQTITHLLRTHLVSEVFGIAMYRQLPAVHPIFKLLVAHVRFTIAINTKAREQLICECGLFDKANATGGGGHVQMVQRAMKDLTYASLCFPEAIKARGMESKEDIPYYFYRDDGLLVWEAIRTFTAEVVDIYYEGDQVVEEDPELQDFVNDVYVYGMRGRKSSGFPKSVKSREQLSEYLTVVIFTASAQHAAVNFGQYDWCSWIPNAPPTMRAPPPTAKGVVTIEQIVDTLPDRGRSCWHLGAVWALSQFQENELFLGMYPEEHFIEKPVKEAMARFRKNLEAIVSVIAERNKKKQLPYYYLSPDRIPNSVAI

[8] = tested on: SH-SY5Y; experiment: Neuroprotective activity against R/O induced human SH-SY5Y cells oxidative stress model assessed as increase in cell survival preincubated for 24 hrs followed by rotenone oligomycin A addition and measured after 24 hrs by MTT assay; type: functional, cell-based; details: dose 0.01-10 µM, time 48.0 hrs
[9] = tested on: SH-SY5Y; experiment: Neuroprotective activity against R/O induced human SH-SY5Y cells oxidative stress model assessed as cell survival at 1 uM preincubated for 24 hrs followed by rotenone oligomycin A addition and measured after 24 hrs by MTT assay; type: functional; details: read-out: Survival
[10] = tested on: SH-SY5Y; experiment: Cytotoxicity against human SH-SY5Y cells at 1 to 100 uM incubated for 24 hrs by MTT method; type: toxicity, cell-based; details: dose 1-100 µM
[11] = tested on: NSC; experiment: Neurogenic activity in C57BL/6 mouse primary NSCs assessed as increase in number of TuJ-1 cells at 10 uM incubated for 10 days by DAPI staining based fluorescence confocal microscopy; type: functional, cell-based; details: time 10.0 day
[12] = tested on: NSC; experiment: Neurogenic activity in C57BL/6 mouse primary NSCs assessed as increase in number of MAP-2 cells at 10 uM incubated for 10 days by DAPI staining based fluorescence confocal microscopy; type: functional, cell-based; details: time 10.0 day
[13] = Dissociation constant, pKa of compound; type: physicochemical
[14] = Aqueous solubility of compound incubated for 24 hrs by UV-spectra analysis; type: physicochemical
[15] = Octanol-water partition coefficient, logD of the compound at pH 1.2; type: physicochemical
[16] = Octanol-water partition coefficient, logD of the compound at pH 7.4; type: physicochemical
[17] = Octanol-water partition coefficient, logD of the compound at pH 1; type: physicochemical
[18] = Octanol-water partition coefficient, logD of the compound at pH 2; type: physicochemical
[19] = Octanol-water partition coefficient, logD of the compound at pH 3; type: physicochemical
[20] = Octanol-water partition coefficient, logD of the compound at pH 4; type: physicochemical
[21] = Octanol-water partition coefficient, logD of the compound at pH 5; type: physicochemical
[22] = Octanol-water partition coefficient, logD of the compound at pH 6; type: physicochemical
[23] = Octanol-water partition coefficient, logD of the compound at pH 6.5; type: physicochemical
[24] = Octanol-water partition coefficient, logD of the compound at pH 7; type: physicochemical
[25] = Octanol-water partition coefficient, logD of the compound at pH 8; type: physicochemical
[26] = Octanol-water partition coefficient, logD of the compound at pH 9; type: physicochemical
[27] = Octanol-water partition coefficient, logD of the compound at pH 10; type: physicochemical
[28] = Octanol-water partition coefficient, logD of the compound at pH 11; type: physicochemical
[29] = Octanol-water partition coefficient, logD of the compound at pH 12; type: physicochemical
[30] = molecular target: T4, Ribosyldihydronicotinamide dehydrogenase [quinone] (Homo sapiens, UniProt P16083); experiment: Inhibition of human QR2 expressed in Escherichia coli preincubated with BNAH or NRH followed by menadione addition by FLUOstar plate reader assay
T4 sequence (P16083 whole entry): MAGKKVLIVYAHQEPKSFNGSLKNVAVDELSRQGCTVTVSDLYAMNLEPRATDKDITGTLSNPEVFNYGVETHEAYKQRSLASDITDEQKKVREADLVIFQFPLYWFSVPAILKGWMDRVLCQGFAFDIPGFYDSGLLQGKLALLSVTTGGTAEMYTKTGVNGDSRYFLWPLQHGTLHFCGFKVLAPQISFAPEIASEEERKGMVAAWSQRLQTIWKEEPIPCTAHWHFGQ

SMILES: COc1ccc2c(c1)CC(c1c[nH]c3ccc(OC)cc13)N2 (stereo unspecified)
Ki [1]: ~10000 nM
Ki [2]: 620 nM
Activity [3]: 58%
Activity [4]: 2.3
IC50 [5]: 2540 nM
IC50 [6]: 3690 nM
IC50 [7]: 5300 nM
Activity [8]: Dose-Dependent Effect
viability at 1 µM [9]: 50%
Activity [10]: Non-Toxic
Activity [11]: Active
Activity [12]: Active
pKa [13]: 5.26
solubility at 24 h [14]: 0.0329 mM (≈ 9.68 µg/mL)
logD [15]: 1.65
logD [16]: 3.31
logD [17]: 1.66
logD [18]: 1.67
logD [19]: 1.78
logD [20]: 2.28
logD [21]: 2.97
logD [22]: 3.26
logD [23]: 3.3
logD [24]: 3.31
logD [25]: 3.31
logD [26]: 3.31
logD [27]: 3.31
logD [28]: 3.31
logD [29]: 3.31

IC50 [30]: 5 nM
SMILES: COc1ccc2c(n1)c(CCNC(=O)c1ccco1)c1n2Cc2cccnc2-1

SMILES: COc1ccc2[nH]cc(CCNC(C)=O)c2c1 [MELATONIN]
Ki [1]: 0.27 nM
Ki [2]: 0.13 nM
Activity [4]: 2.3
viability at 1 µM [9]: 43%
Activity [10]: Non-Toxic
solubility at 24 h [14]: 6.64 mM (≈ 1540 µg/mL)
